Laboratory results published in ChEMBL document CHEMBL3580594, “Synthesis and biological evaluation of 4-substituted fluoronucleoside analogs for the treatment of hepatitis B virus infection” (J Med Chem, 2015).

Tests used:
Hepatitis B virus [1] = assay: Antiviral activity against Hepatitis B virus in HepG2.2.15 cells assessed as inhibition of intracellular/extracellular viral DNA replication after 3 to 9 days by real-time FQ-PCR analysis; format: functional, organism-based; conditions: HepG2 2.2.15
Mus musculus [2] = assay: Acute toxicity in KM mouse assessed as listlessness at 300 mg/kg, iv suspended in normal saline; format: organism-based; conditions: in vivo
Mus musculus [3] = assay: Acute toxicity in KM mouse assessed as weight loss at 3 g/kg, iv suspended in 0.5% CMC/Na solution after 14 days; format: organism-based; conditions: in vivo, 3000 mg/kg, 336 h
Mus musculus [4] = assay: Toxicity in KM mouse assessed as peripheral WBC number in blood per liter at 80 mg/kg, po single dose after 48 hrs (reference value: 11.10 x 2.69/L x 10^-9); format: organism-based; conditions: in vivo
Mus musculus [5] = assay: Toxicity in KM mouse assessed as micronucleus frequency in bone marrow polychromatic erythrocyte at 80 mg/kg, po single dose after 48 hrs (reference value: 2.20 +/- 0.84 %); format: organism-based; conditions: in vivo
Mus musculus [6] = assay: Toxicity in KM mouse assessed as peripheral WBC number in blood per liter at 5 mg/kg/day, po 5 doses (reference value: 7.47 +/- 33.77 /L x 10^-9 cells); format: organism-based; conditions: in vivo
Mus musculus [7] = assay: Toxicity in KM mouse assessed as micronucleus frequency in bone marrow polychromatic erythrocyte at 5 mg/kg, po single dose after 48 hrs (reference value: 1.20 +/- 0.45 %); format: organism-based; conditions: in vivo
Hepatitis B virus [8] = assay: Antiviral activity against Hepatitis B virus in HepG2.2.15 cells assessed as inhibition of intracellular viral DNA replication at 0.2 uM after 3 days by real-time FQ-PCR analysis; format: functional; conditions: HepG2 2.2.15, 72 h
Hepatitis B virus [9] = assay: Antiviral activity against Hepatitis B virus in HepG2.2.15 cells assessed as inhibition of intracellular viral DNA replication at 1 uM after 3 days by real-time FQ-PCR analysis; format: functional; conditions: HepG2 2.2.15, 72 h
Hepatitis B virus [10] = assay: Antiviral activity against Hepatitis B virus in HepG2.2.15 cells assessed as inhibition of intracellular viral DNA replication at 5 uM after 3 days by real-time FQ-PCR analysis; format: functional; conditions: HepG2 2.2.15, 72 h
Hepatitis B virus [11] = assay: Antiviral activity against Hepatitis B virus in HepG2.2.15 cells assessed as inhibition of intracellular viral DNA replication at 0.2 uM after 6 days by real-time FQ-PCR analysis; format: functional; conditions: HepG2 2.2.15, 144 h
Hepatitis B virus [12] = assay: Antiviral activity against Hepatitis B virus in HepG2.2.15 cells assessed as inhibition of intracellular viral DNA replication at 1 uM after 9 days by real-time FQ-PCR analysis; format: functional; conditions: HepG2 2.2.15, 216 h
Hepatitis B virus [13] = assay: Antiviral activity against Hepatitis B virus in HepG2.2.15 cells assessed as inhibition of intracellular viral DNA replication at 5 uM after 9 days by real-time FQ-PCR analysis; format: functional; conditions: HepG2 2.2.15, 216 h
Hepatitis B virus [14] = assay: Antiviral activity against Hepatitis B virus in HepG2.2.15 cells assessed as inhibition of extracellular viral DNA replication at 1 uM after 6 days by real-time FQ-PCR analysis; format: functional; conditions: HepG2 2.2.15, 144 h
Hepatitis B virus [15] = assay: Antiviral activity against Hepatitis B virus in HepG2.2.15 cells assessed as inhibition of extracellular viral DNA replication at 5 uM after 6 days by real-time FQ-PCR analysis; format: functional; conditions: HepG2 2.2.15, 144 h
Hepatitis B virus [16] = assay: Antiviral activity against Hepatitis B virus in HepG2.2.15 cells assessed as inhibition of extracellular viral DNA replication at 0.2 uM after 9 days by real-time FQ-PCR analysis; format: functional; conditions: HepG2 2.2.15, 216 h
Duck hepatitis B virus [17] = assay: Antiviral activity against duck Hepatitis B virus infected in duck assessed as inhibition of viral DNA replication in liver at 0.04 to 20 mg/kg, po; format: functional, organism-based; conditions: TDE = time-dependent effect
Duck hepatitis B virus [18] = assay: Antiviral activity against duck Hepatitis B virus infected in duck assessed as inhibition of viral DNA replication in serum at 0.04 mg/kg/day, po treatment initiated at day 5 after infection relative to control; format: functional; conditions: 120 h
Duck hepatitis B virus [19] = assay: Antiviral activity against duck Hepatitis B virus infected in duck assessed as inhibition of viral DNA replication in serum at 1 mg/kg/day, po treatment initiated at day 5 after infection relative to control; format: functional; conditions: 120 h
Duck hepatitis B virus [20] = assay: Antiviral activity against duck Hepatitis B virus infected in duck assessed as inhibition of viral DNA replication in serum at 1 mg/kg/day, po treatment initiated at day 10 after infection relative to control; format: functional; conditions: 240 h
Duck hepatitis B virus [21] = assay: Antiviral activity against duck Hepatitis B virus infected in duck assessed as inhibition of viral DNA replication in serum at 0.04 mg/kg/day, po measured after 3 days of treatment withdrawal; format: functional; conditions: 72 h
Duck hepatitis B virus [22] = assay: Antiviral activity against duck Hepatitis B virus infected in duck assessed as inhibition of viral DNA replication in serum at 0.2 mg/kg/day, po measured after 3 days of treatment withdrawal; format: functional; conditions: 72 h
Duck hepatitis B virus [23] = assay: Antiviral activity against duck Hepatitis B virus infected in duck assessed as inhibition of viral DNA replication in liver at 1 mg/kg/day, po treatment initiated at day 5 after infection relative to control; format: functional; conditions: 120 h
Duck hepatitis B virus [24] = assay: Antiviral activity against duck Hepatitis B virus infected in duck assessed as inhibition of viral DNA replication in liver at 0.04 mg/kg/day, po treatment initiated at day 10 after infection relative to control; format: functional; conditions: 240 h
Duck hepatitis B virus [25] = assay: Antiviral activity against duck Hepatitis B virus infected in duck assessed as inhibition of viral DNA replication in liver at 0.04 mg/kg/day, po measured after 3 days of treatment withdrawal; format: functional; conditions: 72 h
Duck hepatitis B virus [26] = assay: Antiviral activity against duck Hepatitis B virus infected in duck assessed as inhibition of viral DNA replication in liver at 0.2 mg/kg/day, po measured after 3 days of treatment withdrawal; format: functional; conditions: 72 h
Duck hepatitis B virus [27] = assay: Antiviral activity against duck Hepatitis B virus infected in duck assessed as inhibition of viral DNA replication in liver at 1 mg/kg/day, po measured after 3 days of treatment withdrawal; format: functional; conditions: 72 h
Liver microsome = assay: Drug metabolism in rat liver microsomes assessed as 1-((2R,3S,4R,5R)-5-azido-3-fluoro-4-hydroxy-5-(hydroxymethyl)tetrahydrofuran-2-yl)-4-(2-hydroxycyclopropylamino)pyrimidin-2(1H)-one formation after 2 hrs by LC-MS/MS analysis; format: ADME
Rattus norvegicus [28] = assay: In vivo drug metabolism in rat bile sample assessed as 1-((2R,3S,4R,5R)-5-azido-3-fluoro-4-hydroxy-5-(hydroxymethyl)tetrahydrofuran-2-yl)-4-(2-hydroxycyclopropylamino)pyrimidin-2(1H)-one formation by LC-MS/MS analysis; format: ADME, organism-based
Rattus norvegicus [29] = species: Rattus norvegicus; assay: Drug metabolism in rat urine sample assessed as 1-((2R,3S,4R,5R)-5-azido-3-fluoro-4-hydroxy-5-(hydroxymethyl)tetrahydrofuran-2-yl)-4-(2,3-dihydroxycyclopropylamino)pyrimidin-2(1H)-one formation by LC-MS/MS analysis; format: ADME, organism-based; conditions: in vivo
Rattus norvegicus [30] = species: Rattus norvegicus; assay: Drug metabolism in rat urine sample assessed as 4-amino-1-((2R,3S,4R,5R)-5-azido-3-fluoro-4-hydroxy-5-(hydroxymethyl)tetrahydrofuran-2-yl)pyrimidin-2(1H)-one formation by LC-MS/MS analysis; format: ADME, organism-based; conditions: in vivo
Rattus norvegicus [31] = species: Rattus norvegicus; assay: Drug metabolism in rat urine sample assessed as 4-amino-1-((2R,3S,4R,5R)-5-azido-3-fluoro-4-hydroxy-5-(hydroxymethyl)tetrahydrofuran-2-yl)pyrimidin-2(1H)-one formation by NMR spectrum; format: ADME, organism-based; conditions: in vivo

With `[N-]=[N+]=N[C@]1(CO)O[C@@H](n2ccc(NC3CC3)nc2=O)[C@@H](F)[C@@H]1O` as the molecule, how does the inhibition (Hepatitis B virus [1]) read?
The inhibition was “Dose-dependent effect”.

What about the Activity (Mus musculus [2]) of the same molecule?
The Activity was “Toxic”.

What about the Activity (Mus musculus [3]) of the same molecule?
Its Activity is “Non-toxic”.

And the Activity (Mus musculus [4])?
Its Activity is 8.26 ×10⁹ /L.

And the Activity (Mus musculus [5])?
Its Activity is 1.8%.

And the Activity (Mus musculus [6])?
The Activity was 6.05 ×10⁹ /L.

And the Activity (Mus musculus [7])?
The Activity was 1.2%.

And the inhibition at 0.2 µM (Hepatitis B virus [8])?
Its inhibition at 0.2 µM is 20.6%.

What about the inhibition at 1 µM (Hepatitis B virus [9]) of the same molecule?
The inhibition at 1 µM was 39.2%.

What about the inhibition at 5 µM (Hepatitis B virus [10]) of the same molecule?
The inhibition at 5 µM was 46.2%.

And the inhibition at 0.2 µM (Hepatitis B virus [11])?
Its inhibition at 0.2 µM is 31.7%.

What about the inhibition at 1 µM (Hepatitis B virus [12]) of the same molecule?
The inhibition at 1 µM was 56.9%.

And the inhibition at 5 µM (Hepatitis B virus [13])?
Its inhibition at 5 µM is 68.2%.

What about the inhibition at 1 µM (Hepatitis B virus [14]) of the same molecule?
The inhibition at 1 µM was 76.7%.

And the inhibition at 5 µM (Hepatitis B virus [15])?
The inhibition at 5 µM was 84%.

And the inhibition at 0.2 µM (Hepatitis B virus [16])?
The inhibition at 0.2 µM was 52.1%.

What about the inhibition (Duck hepatitis B virus [17]) of the same molecule?
Its inhibition is “tde”.

And the inhibition in vivo at 0.04 mg/kg/day (Duck hepatitis B virus [18])?
The inhibition in vivo at 0.04 mg/kg/day was 48.1%.

What about the inhibition in vivo at 1 mg/kg/day (Duck hepatitis B virus [19]) of the same molecule?
The inhibition in vivo at 1 mg/kg/day was 71.9%.

What about the inhibition in vivo at 1 mg/kg/day (Duck hepatitis B virus [20]) of the same molecule?
Its inhibition in vivo at 1 mg/kg/day is 74.2%.

What about the inhibition in vivo at 0.04 mg/kg/day (Duck hepatitis B virus [21]) of the same molecule?
The inhibition in vivo at 0.04 mg/kg/day was 47.1%.

What about the inhibition in vivo at 0.2 mg/kg/day (Duck hepatitis B virus [22]) of the same molecule?
Its inhibition in vivo at 0.2 mg/kg/day is 66%.

And the inhibition in vivo at 1 mg/kg/day (Duck hepatitis B virus [23])?
The inhibition in vivo at 1 mg/kg/day was 64.1%.

And the inhibition in vivo at 0.04 mg/kg/day (Duck hepatitis B virus [24])?
The inhibition in vivo at 0.04 mg/kg/day was 62.8%.

What about the inhibition in vivo at 0.04 mg/kg/day (Duck hepatitis B virus [25]) of the same molecule?
The inhibition in vivo at 0.04 mg/kg/day was 58.8%.

What about the inhibition in vivo at 0.2 mg/kg/day (Duck hepatitis B virus [26]) of the same molecule?
The inhibition in vivo at 0.2 mg/kg/day was 63.1%.

And the inhibition in vivo at 1 mg/kg/day (Duck hepatitis B virus [27])?
Its inhibition in vivo at 1 mg/kg/day is 76.1%.

And the Drug metabolism (Liver microsome)?
The Drug metabolism was “metabolite_detected”.

And the Drug metabolism (Rattus norvegicus [28])?
Its Drug metabolism is “metabolite_detected”.

What about the Drug metabolism (Rattus norvegicus [29]) of the same molecule?
The Drug metabolism was “metabolite_detected”.

What about the Drug metabolism (Rattus norvegicus [30]) of the same molecule?
The Drug metabolism was “metabolite_detected”.

And the Drug metabolism (Rattus norvegicus [31])?
The Drug metabolism was “metabolite_detected”.
